Patent US11370798B2 (Vertex Pharmaceuticals Incorporated, priority 2012, dated 2022)

System: HCT116 colorectal cancer cells
Experiment: Cisplatin sensitization assay (96 h cell viability MTS);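 also: Test-compound concentration that lowers the Cisplatin IC50 by a set fold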
Format: cell-based
Conditions: compound and Cisplatin added simultaneously, Cisplatin sensitization value
In short: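 Viability read by MTS (1 h at 37° C) after 96 h co-exposure at 37° C, 5% CO2. Test compound and cisplatin were dosed simultaneously in a full concentration matrix, each 2-fold serially diluted from 10 μM final; sensitization values binned in μM.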

In the case of `CN1CC2(CCN(c3ccncc3NC(=O)c3c(N)nn4cc(F)cnc34)CC2)OC1=O` [I-N-216, 2-amino-6-fluoro-N-(4-(3-methyl-2-oxo-1-oxa-3,8-diazaspiro[4.5]decan-8-yl)pyridin-3-yl)pyrazolo[1,5-a]pyrimidine-3-carboxamide], the “Cisplatin Sensitization Assay” value is reported as “+++ (Cisplatin sensitization value of <0.02 μM)”.

In the case of `Nc1nn2cc(F)cnc2c1C(=O)Nc1cnccc1N1CCN2C(=O)CC[C@H]2C1` [I-N-217, (S)-2-amino-6-fluoro-N-(4-(6-oxohexahydropyrrolo[1,2-a]pyrazin-2(1H)-yl)pyridin-3-yl)pyrazolo[1,5-a]pyrimidine-3-carboxamide], the “Cisplatin Sensitization Assay” value is reported as “++ (Cisplatin sensitization value>0.02 μM but <0.2 μM)”.

In the case of `Cc1nc(C)n(-c2ccncc2NC(=O)c2c(N)nn3cc(F)cnc23)n1` [I-N-218, 2-amino-N-(4-(3,5-dimethyl-1H-1,2,4-triazol-1-yl)pyridin-3-yl)-6-fluoropyrazolo[1,5-a]pyrimidine-3-carboxamide], the “Cisplatin Sensitization Assay” value is reported as “+ (Cisplatin sensitization value>0.2 μM but <5 μM)”.

With `Nc1nn2cc(F)cnc2c1C(=O)Nc1cnccc1-n1ccnc1C(F)(F)F` [I-N-219, 2-amino-6-fluoro-N-(4-(2-(trifluoromethyl)-1H-imidazol-1-yl)pyridin-3-yl)pyrazolo[1,5-a]pyrimidine-3-carboxamide] the “Cisplatin Sensitization Assay” value was “+++ (Cisplatin sensitization value of <0.02 μM)”.

In the case of `CC1(C)CCCN1c1ccncc1NC(=O)c1c(N)nn2cc(F)cnc12` [I-N-220, 2-amino-N-(4-(2,2-dimethylpyrrolidin-1-yl)pyridin-3-yl)-6-fluoropyrazolo[1,5-a]pyrimidine-3-carboxamide], the “Cisplatin Sensitization Assay” value is reported as “++ (Cisplatin sensitization value>0.02 μM but <0.2 μM)”.

With `CS(=O)(=O)C1CCCN(c2ccncc2NC(=O)c2c(N)nn3cc(F)cnc23)C1` (stereo not drawn) [I-N-221, 2-amino-6-fluoro-N-(4-(3-(methylsulfonyl)piperidin-1-yl)pyridin-3-yl)pyrazolo[1,5-a]pyrimidine-3-carboxamide] the “Cisplatin Sensitization Assay” value was “++ (Cisplatin sensitization value>0.02 μM but <0.2 μM)”.

With `Nc1nn2cc(F)cnc2c1C(=O)Nc1cnccc1N1CC(=O)N2CCCC2C1` (stereo not drawn) [I-N-222, 2-amino-6-fluoro-N-(4-(4-oxohexahydropyrrolo[1,2-a]pyrazin-2(1H)-yl)pyridin-3-yl)pyrazolo[1,5-a]pyrimidine-3-carboxamide] the “Cisplatin Sensitization Assay” value was “++ (Cisplatin sensitization value>0.02 μM but <0.2 μM)”.

For `Cc1ccnn1-c1ccncc1NC(=O)c1c(N)nn2cc(F)cnc12` [I-N-223, 2-amino-6-fluoro-N-(4-(5-methyl-1H-pyrazol-1-yl)pyridin-3-yl)pyrazolo[1,5-a]pyrimidine-3-carboxamide], the “Cisplatin Sensitization Assay” value was “++ (Cisplatin sensitization value>0.02 μM but <0.2 μM)”.

With `CN1C[C@@H]2CCN(c3ccncc3NC(=O)c3c(N)nn4cc(F)cnc34)C[C@@H]2C1=O` [I-N-224, 2-amino-6-fluoro-N-(4-((3aR,7aR)-2-methyl-3-oxohexahydro-1H-pyrrolo[3,4-c]pyridin-5(6H)-yl)pyridin-3-yl)pyrazolo[1,5-a]pyrimidine-3-carboxamide] the “Cisplatin Sensitization Assay” value was “+ (Cisplatin sensitization value>0.2 μM but <5 μM)”.

With `Cc1ccn(-c2ccncc2NC(=O)c2c(N)nn3cc(F)cnc23)n1` [I-N-225, 2-amino-6-fluoro-N-(4-(3-methyl-1H-pyrazol-1-yl)pyridin-3-yl)pyrazolo[1,5-a]pyrimidine-3-carboxamide] the “Cisplatin Sensitization Assay” value was “++ (Cisplatin sensitization value>0.02 μM but <0.2 μM)”.

With `Nc1nn2cc(F)cnc2c1C(=O)Nc1cnccc1N1CCC2(CC1)COC2` [I-N-226, N-(4-(2-oxa-7-azaspiro[3.5]nonan-7-yl)pyridin-3-yl)-2-amino-6-fluoropyrazolo[1,5-a]pyrimidine-3-carboxamide] the “Cisplatin Sensitization Assay” value was “+++ (Cisplatin sensitization value of <0.02 μM)”.

In the case of `CN1CCOCC1C(=O)N1CCN(c2c(F)cncc2NC(=O)c2c(N)nn3cc(F)cnc23)CC1` (stereo not drawn) [I-N-227, 2-amino-6-fluoro-N-(5-fluoro-4-(4-(4-methylmorpholine-3-carbonyl)piperazin-1-yl)pyridin-3-yl)pyrazolo[1,5-a]pyrimidine-3-carboxamide], the “Cisplatin Sensitization Assay” value is reported as “+++ (Cisplatin sensitization value of <0.02 μM)”.

In the case of `Nc1nn2cc(F)cnc2c1C(=O)Nc1cncc(F)c1N1CCN(CC(=O)N2CCC2)CC1` [I-N-228, 2-amino-N-(4-(4-(2-(azetidin-1-yl)-2-oxoethyl)piperazin-1-yl)-5-fluoropyridin-3-yl)-6-fluoropyrazolo[1,5-a]pyrimidine-3-carboxamide], the “Cisplatin Sensitization Assay” value is reported as “+++ (Cisplatin sensitization value of <0.02 μM)”.

For `CN1CC2(CCN(c3c(F)cncc3NC(=O)c3c(N)nn4cc(F)cnc34)CC2)OC1=O` [I-N-229, 2-amino-6-fluoro-N-(5-fluoro-4-(3-methyl-2-oxo-1-oxa-3,8-diazaspiro[4.5]decan-8-yl)pyridin-3-yl)pyrazolo[1,5-a]pyrimidine-3-carboxamide], the “Cisplatin Sensitization Assay” value was “+++ (Cisplatin sensitization value of <0.02 μM)”.

In the case of `Nc1nn2cc(F)cnc2c1C(=O)Nc1cnccc1N1CCC(N2CCCC2=O)CC1` [I-N-230, 2-amino-6-fluoro-N-(4-(4-(2-oxopyrrolidin-1-yl)piperidin-1-yl)pyridin-3-yl)pyrazolo[1,5-a]pyrimidine-3-carboxamide], the “Cisplatin Sensitization Assay” value is reported as “+++ (Cisplatin sensitization value of <0.02 μM)”.

`CN1CC2(CCC1=O)CCN(c1ccncc1NC(=O)c1c(N)nn3cc(F)cnc13)CC2` [I-N-231, 2-amino-6-fluoro-N-(4-(2-methyl-3-oxo-2,9-diazaspiro[5.5]undecan-9-yl)pyridin-3-yl)pyrazolo[1,5-a]pyrimidine-3-carboxamide] was tested, and the “Cisplatin Sensitization Assay” value was “+++ (Cisplatin sensitization value of <0.02 μM)”.

In the case of `Nc1nn2cc(F)cnc2c1C(=O)Nc1cncc(F)c1N1CC(=O)N2CCCC2C1` (stereo not drawn) [I-N-232, 2-amino-6-fluoro-N-(5-fluoro-4-(4-oxohexahydropyrrolo[1,2-a]pyrazin-2(1H)-yl)pyridin-3-yl)pyrazolo[1,5-a]pyrimidine-3-carboxamide], the “Cisplatin Sensitization Assay” value is reported as “++ (Cisplatin sensitization value>0.02 μM but <0.2 μM)”.

`CN1CCN2CCN(c3ccncc3NC(=O)c3c(N)nn4cc(F)cnc34)CC2C1=O` (stereo not drawn) [I-N-233, 2-amino-6-fluoro-N-(4-(8-methyl-9-oxohexahydro-1H-pyrazino[1,2-a]pyrazin-2(6H)-yl)pyridin-3-yl)pyrazolo[1,5-a]pyrimidine-3-carboxamide] was tested, and the “Cisplatin Sensitization Assay” value was “++ (Cisplatin sensitization value>0.02 μM but <0.2 μM)”.

For `CN(C)C(=O)C1CN(c2ccncc2NC(=O)c2c(N)nn3cc(F)cnc23)CCO1` (stereo not drawn) [I-N-234, 4-(3-(2-amino-6-fluoropyrazolo[1,5-a]pyrimidine-3-carboxamido)pyridin-4-yl)-N,N-dimethylmorpholine-2-carboxamide], the “Cisplatin Sensitization Assay” value was “+ (Cisplatin sensitization value>0.2 μM but <5 μM)”.

`CN1C(=O)CCC12CCN(c1ccncc1NC(=O)c1c(N)nn3cc(F)cnc13)CC2` [I-N-235, 2-amino-6-fluoro-N-(4-(1-methyl-2-oxo-1,8-diazaspiro[4.5]decan-8-yl)pyridin-3-yl)pyrazolo[1,5-a]pyrimidine-3-carboxamide] was tested, and the “Cisplatin Sensitization Assay” value was “++ (Cisplatin sensitization value>0.02 μM but <0.2 μM)”.

For `CN1CC2(CCN(c3ccncc3NC(=O)c3c(N)nn4cc(F)cnc34)CC2)CC1=O` [I-N-236, 2-amino-6-fluoro-N-(4-(2-methyl-3-oxo-2,8-diazaspiro[4.5]decan-8-yl)pyridin-3-yl)pyrazolo[1,5-a]pyrimidine-3-carboxamide], the “Cisplatin Sensitization Assay” value was “+++ (Cisplatin sensitization value of <0.02 μM)”.
